Source: PubChem BioAssay AID2060493 (Molecular Pharmacology Branch, DTP, NCI, 2025)

Tested on: 616215-338-R-J1-PDC tumor spheroids, viability
Assay: Anticancer human tumor 616215-338-R-J1-PDC patient-derived colon adenocarcinoma cell line growth inhibition [GQUAD]
Details: spheroids with HUVEC and MSC; for IC50: curve of first compound; for viability, T/C: stronger effect = lower value
Summary of the method: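 Viability of tumor cells grown as complex spheroids with endothelial and stromal cells, exposed to drug combinations. Top concentration at or near clinical Cmax (else 10 microM), diluted in half-log increments.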

[1] = second compound 0.0316 µM, first compound 0.0316 µM
[2] = second compound 0.0316 µM, first compound 0.1 µM
[3] = second compound 0.0316 µM, first compound 0.316 µM
[4] = second compound 0.0316 µM, first compound 1 µM
[5] = second compound 0.0316 µM, first compound 3.16 µM
[6] = second compound 0.0316 µM, first compound 10 µM
[7] = second compound 0.1 µM, first compound 0.0316 µM
[8] = second compound 0.1 µM, first compound 0.1 µM
[9] = second compound 0.1 µM, first compound 0.316 µM
[10] = second compound 0.1 µM, first compound 1 µM
[11] = second compound 0.1 µM, first compound 3.16 µM
[12] = second compound 0.1 µM, first compound 10 µM
[13] = second compound 0.316 µM, first compound 0.0316 µM
[14] = second compound 0.316 µM, first compound 0.1 µM
[15] = second compound 0.316 µM, first compound 0.316 µM
[16] = second compound 0.316 µM, first compound 1 µM
[17] = second compound 0.316 µM, first compound 3.16 µM
[18] = second compound 0.316 µM, first compound 10 µM
[19] = second compound 1 µM, first compound 0.0316 µM
[20] = second compound 1 µM, first compound 0.1 µM
[21] = second compound 1 µM, first compound 0.316 µM
[22] = second compound 1 µM, first compound 1 µM
[23] = second compound 1 µM, first compound 3.16 µM
[24] = second compound 1 µM, first compound 10 µM
[25] = second compound 3.16 µM, first compound 0.0316 µM
[26] = second compound 3.16 µM, first compound 0.1 µM
[27] = second compound 3.16 µM, first compound 0.316 µM
[28] = second compound 3.16 µM, first compound 1 µM
[29] = second compound 3.16 µM, first compound 3.16 µM
[30] = second compound 3.16 µM, first compound 10 µM
[31] = second compound 10 µM, first compound 0.0316 µM
[32] = second compound 10 µM, first compound 0.1 µM
[33] = second compound 10 µM, first compound 0.316 µM
[34] = second compound 10 µM, first compound 1 µM
[35] = second compound 10 µM, first compound 3.16 µM
[36] = second compound 10 µM, first compound 10 µM
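Note: spheroids exposed to agents for 7 days before readout.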
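Throughout, for viability, T/C: percent viability relative to DMSO vehicle control wells taken as 100%.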

CC(=O)O[C@H]1C(=O)[C@@]2(C)[C@H]([C@H](OC(=O)c3ccccc3)[C@]3(O)C[C@H](OC(=O)[C@H](O)[C@@H](NC(=O)c4ccccc4)c4ccccc4)C(C)=C1C3(C)C)[C@]1(OC(C)=O)CO[C@@H]1C[C@@H]2O + Cc1[nH]c2ccc(F)cc2c1-c1nc2c3cccnc3c3ncccc3c2[nH]1
IC50 (second compound 0.0316 µM): < 31.6 nM | IC50 (second compound 0.1 µM): < 31.6 nM | IC50 (second compound 0.316 µM): < 31.6 nM | IC50 (second compound 1 µM): < 31.6 nM | IC50 (second compound 3.16 µM): < 31.6 nM | IC50 (second compound 10 µM): < 31.6 nM | viability, T/C [1]: 25.5% | viability, T/C [2]: 21.1% | viability, T/C [3]: 16.1% | viability, T/C [4]: 14.5% | viability, T/C [5]: 13.6% | viability, T/C [6]: 12.9% | viability, T/C [7]: 31.7% | viability, T/C [8]: 15.6% | viability, T/C [9]: 15.4% | viability, T/C [10]: 12.1% | viability, T/C [11]: 11.7% | viability, T/C [12]: 13.8% | viability, T/C [13]: 22.9% | viability, T/C [14]: 18.9% | viability, T/C [15]: 15.5% | viability, T/C [16]: 11.6% | viability, T/C [17]: 13.1% | viability, T/C [18]: 11.6% | viability, T/C [19]: 19.6% | viability, T/C [20]: 12.4% | viability, T/C [21]: 12.8% | viability, T/C [22]: 11.8% | viability, T/C [23]: 13.2% | viability, T/C [24]: 14.7% | viability, T/C [25]: 14.9% | viability, T/C [26]: 14.7% | viability, T/C [27]: 15.1% | viability, T/C [28]: 10.2% | viability, T/C [29]: 10.8% | viability, T/C [30]: 11.1% | viability, T/C [31]: 16% | viability, T/C [32]: 12.5% | viability, T/C [33]: 14.9% | viability, T/C [34]: 11.5% | viability, T/C [35]: 10.1% | viability, T/C [36]: 10.8%

CCCS(=O)(=O)Nc1ccc(F)c(C(=O)c2c[nH]c3ncc(-c4ccc(Cl)cc4)cc23)c1F + Cc1[nH]c2ccc(F)cc2c1-c1nc2c3cccnc3c3ncccc3c2[nH]1
IC50 (second compound 0.0316 µM): 5540 nM | IC50 (second compound 0.1 µM): 5280 nM | IC50 (second compound 0.316 µM): 5620 nM | IC50 (second compound 1 µM): 5420 nM | IC50 (second compound 3.16 µM): 5190 nM | IC50 (second compound 10 µM): 4760 nM | viability, T/C [1]: 105% | viability, T/C [2]: 96.7% | viability, T/C [3]: 93.8% | viability, T/C [4]: 99.1% | viability, T/C [5]: 94.9% | viability, T/C [6]: 2.78% | viability, T/C [7]: 93.6% | viability, T/C [8]: 107% | viability, T/C [9]: 102% | viability, T/C [10]: 102% | viability, T/C [11]: 87.6% | viability, T/C [12]: 3.08% | viability, T/C [13]: 104% | viability, T/C [14]: 98.7% | viability, T/C [15]: 99% | viability, T/C [16]: 98% | viability, T/C [17]: 96.5% | viability, T/C [18]: 3.41% | viability, T/C [19]: 109% | viability, T/C [20]: 106% | viability, T/C [21]: 89% | viability, T/C [22]: 96.3% | viability, T/C [23]: 91.5% | viability, T/C [24]: 2.83% | viability, T/C [25]: 96.7% | viability, T/C [26]: 91.4% | viability, T/C [27]: 101% | viability, T/C [28]: 95.2% | viability, T/C [29]: 86.6% | viability, T/C [30]: 1.44% | viability, T/C [31]: 101% | viability, T/C [32]: 92.3% | viability, T/C [33]: 101% | viability, T/C [34]: 93.5% | viability, T/C [35]: 76.8% | viability, T/C [36]: 1.37%

O=c1[nH]cc(F)c(=O)[nH]1 + Cc1[nH]c2ccc(F)cc2c1-c1nc2c3cccnc3c3ncccc3c2[nH]1
IC50 (second compound 0.0316 µM): 685 nM | IC50 (second compound 0.1 µM): 380 nM | IC50 (second compound 0.316 µM): 592 nM | IC50 (second compound 1 µM): 729 nM | IC50 (second compound 3.16 µM): 342 nM | IC50 (second compound 10 µM): 289 nM | viability, T/C [1]: 97.7% | viability, T/C [2]: 96.9% | viability, T/C [3]: 64.3% | viability, T/C [4]: 43% | viability, T/C [5]: 48.1% | viability, T/C [6]: 37% | viability, T/C [7]: 102% | viability, T/C [8]: 94.4% | viability, T/C [9]: 51.8% | viability, T/C [10]: 41.3% | viability, T/C [11]: 36.3% | viability, T/C [12]: 35.1% | viability, T/C [13]: 99.6% | viability, T/C [14]: 92.6% | viability, T/C [15]: 57.1% | viability, T/C [16]: 47% | viability, T/C [17]: 37% | viability, T/C [18]: 34.2% | viability, T/C [19]: 96% | viability, T/C [20]: 94.8% | viability, T/C [21]: 65.1% | viability, T/C [22]: 46.1% | viability, T/C [23]: 39.2% | viability, T/C [24]: 43.6% | viability, T/C [25]: 98.3% | viability, T/C [26]: 82.9% | viability, T/C [27]: 51.5% | viability, T/C [28]: 37.6% | viability, T/C [29]: 38.8% | viability, T/C [30]: 42.7% | viability, T/C [31]: 102% | viability, T/C [32]: 83.8% | viability, T/C [33]: 46.7% | viability, T/C [34]: 38.9% | viability, T/C [35]: 34.3% | viability, T/C [36]: 36.2%
